From patent EP2111861A1, “Compositions of phosphodiesterase type IV inhibitors” (Ranbaxy Laboratories Limited, priority 2008, dated 2009) come the findings set out here.

Each structure is given as a SMILES string.

One assay relates to TNF-α release. The experiment in a line: Cell based Assay for TNF-α release, PDE IV inhibitor in combination with corticosteroids. The note with it: Compound No. 266 in combination with corticosteroid (not named), human PBMC. The procedure:
Blood was collected in heparin or EDTA vacutainers from healthy human volunteers and Peripheral Blood Mononuclear Cells isolated using Ficoll Hypaque gradient. The cells were resuspended in serum free RPMI 1640 medium at a concentration of 2 million cells/ml). 1 ml of this cell suspension was co-incubated with 20 µl of compound, alone or in combination (PDE IV inhibitor and corticosteroid), for 10 min in a flat bottom 96 well microtiter plate The aforesaid compounds were dissolved in DMSO initially and diluted in medium for a final concentration of 0.2 % DMSO. LPS ([…], final concentration) was then added at a volume of 10 µl per well. After 30 min, 20 µl of fetal calf serum (final concentration of 10 %) was added to each well. Cultures were incubated overnight at 37 °C in an atmosphere of 5 % CO2 and 95 % air. Supernatant was then removed and tested by ELISA for TNF-α release using a commercial kit (e.g. BD Biosciences). The level of TNF-α in treated wells was compared with the vehicle treated controls and inhibitory potency of compound was expressed as IC50 values calculated by from percent inhibition values using Graph pad prism. […] Percent inhibition = 100-(Percent TNF-α drug treated)/(Percent TNF-α in vehicle treated) × 100 [formula]

The test system of assay [1] is LPS induced airway hyperreactivity. In words: LPS induced airway hyperreactivity (PC100, Penh), PDE-IV inhibitor in combination with muscarinic receptor antagonist. The assay is classed as in vivo, Wistar rats. Conditions: intratracheal. The procedure: MRA (1ng/kg to 1mg/kg) and PDE-IV inhibitor (1ng/kg to 1mg/kg) were instilled intratracheally under anesthesia either alone or in combination.
Wistar rats weighing 200±20gm were used in the study. Rats had free access to food and water. On the day of experiment, animals were exposed to lipopolysaccharide (LPS, 100µg/ml) for 40 min. One group of vehicle treated rats was exposed to phosphate buffered saline (PBS) for 40 min. four hours after LPS/PBS exposure, animals were placed inside a whole body plethysmograph (Buxco Electronics, USA) and exposed to PBS or increasing concentration of acetylcholine (1, 6, 12, 24, 48 and 96 mg/ml) aerosol until Penh values (index of airway resistance) of rats attained 2 times the value (PC-100) seen with PBS alone. The respiratory parameters were recorded online using Biosystem XA software, (Buxco Electronics, USA). Penh, at any chosen dose of acetylcholine was expressed as percent of PBS response and using a nonlinear regression analysis PC100 (2 folds of PBS value) values were computed. Percent inhibition was computed using the following formula. % Inhibition = (PC100_LPS -PC100_TEST)/(PC100_LPS -PC100_PBS) × 100 [formula] Where, PC100LPS = PC100 in vehicle treated and LPS challenged group PC100TEST = PC100 in group treated with a given dose of test compound PC100PBS = PC100 in vehicle treated group challenged with PBS

The test system of assay [2] is LPS induced rat neutrophilia. The experiment in a line: LPS induced rat neutrophilia model, PDE IV inhibitor in combination with corticosteroids. The assay is classed as in vivo. The note with it: Compound No. 266 in combination with corticosteroid (not named), intratracheal, neutrophil count in BAL. The procedure:
PDE-4 inhibitor and corticosteroids were instilled intratracheally under anesthesia at different doses, either alone or in combination. LPS challenge: One hour after drug instillation, (LPS 20 µg/200 µl of PBS) was instilled intratracheally. One group of vehicle treated rats were instilled with 200 µl of phosphate buffered saline (PBS) and served as negative control. Bronchoalveolar lavage (BAL): Two hours after LPS challenge, bronchoalveolar lavage was performed; the animals were sacrificed using thiopentone sodium (150 mg/kg/i.p.). Trachea was cannulated and BAL was performed using Hank's Buffer salt solution (HBSS) (5 ml x 10 times). The bronchoalveolar lavage fluid was centrifuged at 800 g for 5 min, at 4°C and the pellet was resuspended in 1 ml HBSS. Total leukocyte count was performed in the resuspended sample by using hemocytometer. A cytocentrifuge preparation was made using the resuspended bronchoalveolar lavage fluid on a glass slide, stained with Leishmann's stain and then differential leukocyte counts was performed for computation of neutrophil. Statistical significance of each parameter in different treatment groups was determined with respective to vehicle control group using one-way analysis of variance followed by Dunnett's 't' test for multiple comparison. A p level of ≤ 0.05 was considered to be statistically significant.

The test system of assay [3] is TNF-α release from human PBMCs. In words: Cell based Assay for TNF-α release, PDE IV inhibitor in combination with p38 MAP Kinase inhibitors. Conditions: inhibiting TNF-α release from human PBMCs, LPS stimulated, compound alone. On the procedure:
Blood was collected in heparin or EDTA vacutainers from healthy human volunteers and Peripheral Blood Mononuclear Cells isolated using Ficoll Hypaque gradient. The cells were resuspended in serum free RPMI 1640 medium at a concentration of 2 million cells/ml.). 1 ml of this cell suspension was co-incubated with 20 µl of compound, alone or in combination, for 10 min in a flat bottom 96 well microtiter plate. Compounds were dissolved in DMSO initially and diluted in medium for a final concentration of 0.2 % DMSO. LPS (1 µg/ml, final concentration) was then added at a volume of 10 µl per well. After 30 min, 20 µl of fetal calf serum (final concentration of 10 %) was added to each well. Cultures were incubated overnight at 37 °C in an atmosphere of 5 % CO2 and 95 % air. Supernatant were then removed and tested by ELISA for TNF-α release using a commercial kit (e.g. BD Biosciences). The level of TNF-α in treated wells was compared with the vehicle treated controls and inhibitory potency of compound was expressed as IC50 values calculated from the percent inhibition values by using Graph pad prism. Percent inhibition = 100-(Percent TNF-α drug treated)/(Percent TNF-α in vehicle treated) × 100 [formula]

Where [4] appears, read: Compound No. 266 in combination with Tiotropium (MRA), PC100.

For orientation: IC50 means the point on the concentration scale where inhibition reaches its midpoint. As for `COc1cc(C2=NO[C@]3(CCOC3)C2)ccc1OC(F)F` (single isomer, unassigned) [Compound No. 266, (5S or 5R)-3-[4-(Difluoromethoxy)-3-methoxyphenyl]-1,7-dioxa-2-azaspiro[4.4]non-2-ene], in the assay with TNF-α release, the “Combination Index” value stood at 0.21 and the synergy with corticosteroids entry was “synergy”. In assay [1] (10 µg/kg), the “effect when administered alone” value is listed as “ineffective”. In assay [1] (setting [4]), the Combination Index is 0.26 and the “synergy with Tiotropium (MRA)” value is given as “synergy”. Besides, in assay [2], the “Combination Index” value amounted to 0.58 and the synergy with corticosteroids entry is reported as “synergy”. Also, the IC50 in assay [3] was 76 nM.

Consider `Cc1ccccc1-c1cc2cnc(NC3CCN(S(C)(=O)=O)CC3)nc2n([C@H]2CCOC2)c1=O` [Compound No. 44a, 6-(2-Methylphenyl)-2-{[1-(methylsulfonyl)piperidin-4-yl]amino}-8-[(3S)-tetrahydrofuran-3-yl]pyrido[2,3-d]pyrimidin-7(8H)-one], for which the IC50 in assay [3] (PBMC) was found to be 3 nM.

Regarding `Cc1ccccc1-c1cc2cnc(NC3CCN(S(C)(=O)=O)CC3)nc2n([C@@H]2CCOC2)c1=O` [Compound No. 46a, 6-(2-Methylphenyl)-2-{[1-(methylsulfonyl)piperidin-4-yl]amino}-8-[(3R)-tetrahydrofuran-3-yl]pyrido[2,3-d]pyrimidin-7(8H)-one], the half-maximal inhibitory concentration (IC50) in assay [3] (PBMC) was 2 nM.

With `Cc1ccccc1-c1cc2cnc(NC3CCN(C(=O)NC(C)C)CC3)nc2n([C@@H]2CCOC2)c1=O` [Compound No. 47a, N-Isopropyl-4-({6-(2-methylphenyl)-7-oxo-8-[(3R)-tetrahydrofuran-3-yl]-7,8-dihydropyrido[2,3-d]pyrimidin-2-yl}amino)piperidine-1-carboxamide], in assay [3] (PBMC), the IC50 is 22 nM.

For `Cc1n(CCCOC(=O)[C@](O)(c2ccccc2)[C@@H]2CCC(F)(F)C2)cc[n+]1Cc1ccccc1.[Br-]` [Compound No. 104aa, 3-Benzyl-1-[3-({(2R)-2-[(1R)-3,3-difluorocyclopentyl]-2-hydroxy-2-phenylacetyl}oxy)propyl]-2-methyl-1H-imidazol-3-ium bromide], the “effect when administered alone” value in assay [1] (10 ng/kg) was “not effective”.

As for `O=c1ncn2nc(Sc3ccc(F)cc3F)ccc2c1-c1c(Cl)cccc1Cl` [Vx-745, reference compound], the half-maximal inhibitory concentration (IC50) in assay [3] (PBMC) amounted to 14 nM.
